Data published in patent publication US9782522B2, “Compositions and methods for treating and preventing neointimal stenosis” (Yale University, priority 2011, dated 2017).

Key:
[1] = tested on: constitutively active ALK-4, ALK-5, and ALK-7; parameters: dose or concentration left out as unconfirmed; conditions: transfected NIH 3T3 cells; cited from earlier work
ALK-1, -2, -3, and -6 = conditions: cited from earlier work
TEVG stenosis = test: Tissue-engineered vascular graft (TEVG) stenosis model; format: in vivo, mice
Source text: Scaffolds were constructed from a nonwoven polyglycolic acid (PGA) mesh (Concordia Fibers) and a co-polymer sealant solution of poly-L-lactide and -ε-caprolactone (P(CL/LA)) as previously described (Roh J D, et al. Biomaterials. 29(10):1454 (2008)). For scaffold seeding studies, bone marrow was collected from the femurs of syngeneic C57BL/6 mice. Following purification of the mononuclear cell component using Histopaque-1086 (Sigma) centrifugation, one million mononuclear cells were manually pipetted onto the scaffold. The seeded scaffold was incubated in RPMI 1640 Medium (Gibco) overnight prior to implantation as previously described (Roh J D, et al. Biomaterials. 29(10):1454 (2008)).
sFGFR1-IIIc adenovirus was previously described (Murakami M, et al. J Clin Invest. 118(10):3355 (2008)) at a dose of 5×10^10 viral particles per mouse 1 week prior to TEVG implantation by tail vein injection. Control mice were given equivalent volumes of sterile PBS. Serum level of sFGFR1-IIIc was measured by a Human IgG Subclass Profile kit (Invitrogen).
Mice treated with TGFβRI kinase inhibitor were treated with SB431542 hydrate (Sigma) in DMSO given by intraperitoneal injection twice a day from post-operative day 0 to post-operative day 14 at a dose of 10 mg/kg. Control mice were treated with equivalent volumes of sterile DMSO.
Explanted grafts were pressure fixed in 10% formalin overnight and then embedded in paraffin or glycolmethacrylate using previously published methods (Roh J D, et al. Proc Natl Acad Sci USA. 107(10):4669 (2010)). Sections were stained with H&E or Gomori Trichrome. Graft luminal diameters were measured using ImageJ software. Stenosis was defined as greater than 50% decrease in luminal diameter. Critical stenosis was defined as 80% narrowing of the luminal diameter. Graft occlusion was defined as 100% narrowing of the luminal diameter. For EM studies scaffolds were cut into 0.5 mm thick cross-sections and imaged on a […] scanning electron microscope (Hillsboro) as previously described (Roh J D, et al. Biomaterials. 29(10):1454 (2008)). TGFβ positive cell area was measured using ImageJ software. Two separate sections of each explant were counterstained with hematoxalin and imaged at 400× magnification. The number of nuclei was then counted in five regions of each section and averaged. LacZ/SMA colocalized cells were quantified in the same manner using double immunofluorescent staining imaged under 60× confocal magnification.

[2] = Tie2-CreXRosa26 mice, 10 mg/kg twice daily intraperitoneal for 2 weeks, vs DMSO

## NC(=O)c1ccc(-c2nc(-c3ccc4c(c3)OCO4)c(-c3ccccn3)[nH]2)cc1 [SB431542, 4-[4-(1,3-Benzodioxol-5-yl)-5-(2-pyridinyl)-1H-imidazol-2-yl]-benzamide]
[1]
  Phosphorylation of Smad2 by constitutively active ALK-4, ALK-5, and ALK-7: completely abolished
ALK-1, -2, -3, and -6
  Effect on ALK-1, -2, -3, and -6 and hence BMP signaling: without effect
TEVG stenosis; [2]
  TEVG luminal diameter: significantly increases
  graft patency: significantly increases
TEVG stenosis; Tie2 lineage-tracing mice, drug treated
  LacZ-positive smooth muscle cells in occluded grafts: significant reduction
TEVG stenosis; local drug delivery (drug in microparticles, drug in solvent), 2 weeks, unseeded grafts, mouse model
  Patency: significantly increases
TEVG stenosis; local drug delivery, unseeded grafts, mouse model
  neotissue creation: enabled neotissue creation
TEVG stenosis; systemic treatment, 10 mg/kg twice daily intraperitoneal
  neotissue creation (CD31 positive endothelial layer lining SMA positive smooth muscle layer): proper neotissue creation
